Measurements as given in patent publication US9011927B2, “Pentablock polymers” (The Curators of the University of Missouri, priority 2010, dated 2015).

Key:
Format in all cases: cell-based
[1] = test system: RAW 264.7 (mouse macrophage cell line); assay: MTS assay on Pentablock Polymer A, RAW 264.7; conditions: RAW 264.7, Triton X positive control
Protocol: (§1) The cytotoxicity and biocompatibility of the Pentablock Polymer A and Pentablock Polymer B were investigated in several cell lines. ARPE-19 (human retinal pigment epithelial cell line), SIRC (rabbit corneal cell line), and RAW 264.7 (mouse macrophage cell line) were obtained from American Type Culture Collection (“ATCC”). ARPE-19 cells were cultured in Dubelcco's modified Eagle's medium (“DMEM/F12”) supplemented with 10% fetal bovine serum (“FBS”), 100 U/mL penicillin and 100 μg/mL of streptomycin. SIRC cells were cultured in minimum essential medium (“MEM”) and supplemented with 10% FBS, 100 U/mL of penicillin and 100 μg/mL of streptomycin. RAW 264.7 (Mouse macrophage cells) cells were cultured in DMEM/F12supplemented with 10% FBS, 10% of nonessential amino acids, 100 U/mL penicillin and 100 μg/mL of streptomycin. The pH of the medium was adjusted to 7.4 and cells were incubated in humidified atmosphere at 37° C. temperature with 5% CO2 environment. The cell cultures were exposed directly to different concentrations of Pentablock Polymer A and Pentablock Polymer B. […]
(§2) MTS assay is based on the reduction of the tetrazolium salt (yellow) to fromazone (purple) by mitochondrial enzymes of metabolic active cells. […] After incubation, the absorbance of each well was measured at 450 nm by ELISA plate reader. The absorbance is directly proportional to viability of cells.

[2] = test system: SIRC (rabbit corneal cell line); assay: MTS assay on Pentablock Polymer A, SIRC; conditions: Triton X positive control
Protocol: as §1, §2

[3] = test system: ARPE-19 (human retinal pigment epithelial cell line); assay: MTS assay on Pentablock Polymer B, ARPE 19; conditions: ARPE 19, Triton X positive control
Protocol: The cytotoxicity and biocompatibility of the Pentablock Polymer A and Pentablock Polymer B were investigated in several cell lines. ARPE-19 (human retinal pigment epithelial cell line), SIRC (rabbit corneal cell line), and RAW 264.7 (mouse macrophage cell line) were obtained from American Type Culture Collection (“ATCC”). ARPE-19 cells were cultured in Dubelcco's modified Eagle's medium (“DMEM/F12”) supplemented with 10% fetal bovine serum (“FBS”), 100 U/mL penicillin and 100 μg/mL of streptomycin. SIRC cells were cultured in minimum essential medium (“MEM”) and supplemented with 10% FBS, 100 U/mL of penicillin and 100 μg/mL of streptomycin. RAW 264.7 (Mouse macrophage cells) cells were cultured in DMEM/[…] with 10% FBS, 10% of nonessential amino acids, 100 U/mL penicillin and 100 μg/mL of streptomycin. […] The cell cultures were exposed directly to different concentrations of Pentablock Polymer A and Pentablock Polymer B. Pentablock Polymer B: Cytotoxicity for Pentablock Polymer B was performed at different concentration ranging from 0.5-10 mg/ml. The plates were seeded with cell density of 10,000 cells/100 μL. […] After incubation, the absorbance of each well was measured at 450 nm by ELISA plate reader. The absorbance is directly proportional to viability of cells.

[4] = test system: PCEC; assay: MTS assay on Pentablock Polymer B, PCEC; conditions: Triton X positive control
Protocol: Pentablock Polymer B: Cytotoxicity for Pentablock Polymer B was performed at different concentration ranging from 0.5-10 mg/ml. The plates were seeded with cell density of 10,000 cells/100 μL. After 24 hours of incubation fresh medium containing hydrogel of different concentration ranging from 0.5-10 mg/ml were added and further incubated for 24 hours. MTS assay is based on the reduction of the tetrazolium salt (yellow) to fromazone (purple) by mitochondrial enzymes of metabolic active cells. The amount of the fromazone is directly proportional to viable cells. In MTS assay Trioton X treated cells were served as […]. […] After incubation, the absorbance of each well was measured at 450 nm by ELISA plate reader. The absorbance is directly proportional to viability of cells.

Which results are given for Triton X?
MTS assay (absorbance proportional to viability of cells) [1]: 0; MTS assay (absorbance proportional to viability of cells) [2]: 0; MTS assay (absorbance proportional to viability of cells) [3]: 0.000; MTS assay (absorbance proportional to viability of cells) [4]: 0.000
